Laboratory results taken from patent publication US20250051355A1, “COMPOUNDS, COMPOSITIONS, AND METHODS” (ACONCAGUA BIO, INC., priority 2023, published 2025).

Assays:
[1] = target: human calcitonin receptor (CTR) and RAMP3 (AMY3) (Homo sapiens, UniProt O60896+P30988); experiment: Amylin Receptor cAMP Assay II; type: cell-based; conditions: COS-7/AMY3 cells, cAMP dynamic 2 kit, read-out: Amylin Receptor cAMP Stimulation Activity: EC50
Method in brief: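 COS-7 cells stably co-expressing human CTR and RAMP3 (AMY3) were treated with 4-fold serially diluted compounds at 2000 cells/well in HBSS with 20 mM HEPES, 0.5 mM IBMX and 0.1% casein for 30 min at 37 °C. cAMP was measured by HTRF (cAMP-d2 plus anti-cAMP cryptate, 1 h at RT) with reads at 665/615 nm.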

[2] = target: T1, human calcitonin receptor (CTR) (Homo sapiens, UniProt P30988); experiment: Calcitonin receptor (CTR) cAMP Assay; type: cell-based; conditions: COS7-human CTR Clone #2 cells, cAMP dynamic 2 kit; read-out: Calcitonin Receptor cAMP Stimulation Activity: EC50
T1 construct: expressed in transfected cells; host or cells: COS-7 (COS7-human CTR Clone #2)
T1 sequence (P30988 25-474): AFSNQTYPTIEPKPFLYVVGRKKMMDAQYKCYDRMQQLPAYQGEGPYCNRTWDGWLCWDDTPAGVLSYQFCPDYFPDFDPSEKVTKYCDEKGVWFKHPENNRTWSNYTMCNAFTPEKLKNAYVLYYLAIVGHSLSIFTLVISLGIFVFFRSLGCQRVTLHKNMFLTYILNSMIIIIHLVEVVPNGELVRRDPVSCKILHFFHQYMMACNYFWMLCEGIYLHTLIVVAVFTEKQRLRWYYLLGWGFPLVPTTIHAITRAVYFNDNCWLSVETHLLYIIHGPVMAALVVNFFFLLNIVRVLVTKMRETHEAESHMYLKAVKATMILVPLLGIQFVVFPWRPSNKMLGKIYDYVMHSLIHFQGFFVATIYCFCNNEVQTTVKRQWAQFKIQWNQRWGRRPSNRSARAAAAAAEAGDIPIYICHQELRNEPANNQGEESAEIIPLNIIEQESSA
Method in brief: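 COS-7 cells stably expressing human CTR (2000 cells/well) treated with 4-fold serially diluted compounds in HBSS/20 mM HEPES/0.5 mM IBMX/0.1% casein, 30 min at 37° C. cAMP quantified by HTRF (cAMP-d2 plus anti-cAMP cryptate, 1 h RT), fluorescence read at 665 and 615 nm.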

human calcitonin receptor (CTR) and RAMP3 (AMY3), sequence (O60896 24-148, one chain of several): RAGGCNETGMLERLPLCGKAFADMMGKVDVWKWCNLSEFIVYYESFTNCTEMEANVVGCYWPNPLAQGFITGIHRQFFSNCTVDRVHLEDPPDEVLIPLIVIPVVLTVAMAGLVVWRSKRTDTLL

EC50 [1] | EC50 [2] | Compound
857 nM | 35.6 nM | Cc1nnc(-c2c(CCC3CCOCC3)nc3c(c2-c2cc4ccnc(N[C@@H]5CCc6ncccc65)c4s2)C(=O)N2CCOC[C@@H]32)o1 [Compound 95, (R)-4-(7-(((R)-6,7-dihydro-5H-cyclopenta[b]pyridin-5-yl)amino)thieno[2,3-c]pyridin-2-yl)-3-(5-methyl-1,3,4-oxadiazol-2-yl)-2-(2-(tetrahydro-2H-pyran-4-yl)ethyl)-7,8,10,10a-tetrahydro-5H-pyrido[2′,3′:3,4]pyrrolo[2,1-c][1,4]oxazin-5-one]
306 nM | 25 nM | Cc1nnc(-c2c(CCC3CCOCC3)nc3c(c2-c2cc4ccnc(N[C@@H]5CCc6ncccc65)c4s2)C(=O)N2CCC[C@@H]32)o1 [Compound 64, (S)-4-(7-(((R)-6,7-dihydro-5H-cyclopenta[b]pyridin-5-yl)amino)thieno[2,3-c]pyridin-2-yl)-3-(5-methyl-1,3,4-oxadiazol-2-yl)-2-(2-(tetrahydro-2H-pyran-4-yl)ethyl)-7,8,9,9a-tetrahydro-5H-pyrido[2,3-a]pyrrolizin-5-one]
55.3 nM | 10.2 nM | CC(C)C1CS(=O)(=O)c2c1nc(CCC1CCOCC1)c(-c1nnc(N)o1)c2-c1cc2ccnc(N[C@@H]3CCc4ncccc43)c2s1 (stereo partly drawn) [Compound 120, 7-{7-[(R)-4-aza-1-indanylamino]-1-thia-6-aza-2-indenyl}-6-(5-amino-1,3,4-oxadiazol-2-yl)-3-isopropyl-5-[2-(tetrahydro-2H-pyran-4-yl)ethyl]-1λ^6-thia-4-aza-1,1-indandione]
462 nM | 42.1 nM | Cc1nnc(-c2c(CCC3CCOC(C)(C)C3)nc3c(c2-c2cc4ncnc(N[C@@H]5CCc6ncccc65)c4s2)S(=O)(=O)CC3C(C)C)o1 (stereo partly drawn) [Compound 108, N—(R)-4-aza-1-indanyl(2-(5-[2-(2,2-dimethyltetrahydro-2H-pyran-4-yl)ethyl]-3-isopropyl-6-(5-methyl-1,3,4-oxadiazol-2-yl)-1,1-dioxo-1λ^6-thia-4-aza-7-indanyl}-1-thia-4,6-diaza-7-indenyl)amine]
58.9 nM | 1.23 nM | Cc1nnc(-c2c(CCc3ccc(F)cc3)nc3c(c2-c2ccc4c(c2)oc(=O)n4Cc2ccc(C#N)cn2)c(=O)n2n3CCC2)o1 [Compound 142, 6-[(6-{11-[2-(p-fluorophenyl)ethyl]-10-(5-methyl-1,3,4-oxadiazol-2-yl)-7-oxo-2,6,12-triazatricyclo[6.4.0.0^2,6]dodeca-1(12),8,10-trien-9-yl}-2-oxo-1,3-benzoxazol-3-yl)methyl]nicotinonitrile]
166 nM | 5.38 nM | Cc1nnc(-c2c(CCC3CCOCC3)nc3c(c2-c2ccc4c(c2)oc(=O)n4Cc2ccc(C#N)c(F)c2)C(=O)N2CCOCC32O)o1 (stereo not shown) [Compound 135, 4-[(6-(4a-hydroxy-7-(5-methyl-1,3,4-oxadiazol-2-yl)-9-oxo-6-[2-(tetrahydro-2H-pyran-4-yl)ethyl]-1,2,4,4a-tetrahydro-9H-3-oxa-5,9a-diazafluoren-8-yl}-2-oxo-1,3-benzoxazol-3-yl)methyl]-2-fluorobenzonitrile]
13 nM | 0.676 nM | COc1cccc2c1CC[C@H]2Nc1nccc2cc(-c3c4c(nc(CCc5ccc(F)cc5)c3-c3nnc[nH]3)[C@@H]3CCCN3C4=O)sc12 [Compound 85, (S)-2-(4-fluorophenethyl)-4-(7-(((R)-4-methoxy-2,3-dihydro-1H-inden-1-yl)amino)thieno[2,3-c]pyridin-2-yl)-3-(4H-1,2,4-triazol-3-yl)-7,8,9,9a-tetrahydro-5H-pyrido[2,3-a]pyrrolizin-5-one]
471 nM | 42.2 nM | Cc1nnc(-c2c(CCC3CCOCC3)nc3c(c2-c2cc4ccnc(N[C@H](C)c5cncc(F)c5)c4s2)S(=O)(=O)CC3C(C)C)o1 (stereo partly drawn) [Compound 93, [(R)-1-(5-fluoro-3-pyridyl)ethyl](2-(3-isopropyl-6-(5-methyl-1,3,4-oxadiazol-2-yl)-1,1-dioxo-5-[2-(tetrahydro-2H-pyran-4-yl)ethyl]-1λ^6-thia-4-aza-7-indanyl}-1-thia-6-aza-7-indenyl)amine]
180 nM | 17.2 nM | Cc1nnc(-c2c(CCC34CCC(CC3)OC4)nc3c(c2-c2cc4ccnc(N[C@@H]5CCc6ncccc65)c4s2)c(=O)n2n3CCC2)o1 [Compound 147, 6-((2S)-2-methyl-10-(2-methyl-4-pyridyl)-7-oxo-11-[2-(tetrahydro-2H-pyran-4-yl)ethyl]-6,12-diazatricyclo[6.4.0.0,^1I]dodeca-1(12),8,10-trien-9-yl}-3-[(5-chloro-3-fluoro-2-pyridyl)methyl]-1,3-benzoxazol-2(3H)-one]
83.4 nM | 2.58 nM | Cc1nnc(-c2c(CCC34CCC(CC3)OC4)nc3c(c2-c2ccc4c(c2)oc(=O)n4Cc2ccc(C#N)cn2)c(=O)n2n3CCC2)o1 [Compound 144, 6-((6-[10-(5-methyl-1,3,4-oxadiazol-2-yl)-11-(2-(2-oxabicyclo[2.2.2]oct-4-yl)ethyl}-7-oxo-2,6,12-triazatricyclo[6.4.0.0^2,^6]dodeca-1(12),8,10-trien-9-yl]-2-oxo-1,3-benzoxazol-3-yl}methyl)nicotinonitrile]
5380 nM | 226 nM | CCc1nc2c(c(-c3ccc4c(c3)OC(C)(C)C(=O)N4Cc3ccc(F)cn3)c1-c1nnc(C)o1)C(=O)N1CC3CC21C3 [Compound 161, 7-[4-ethyl-5-(5-methyl-1,3,4-oxadiazol-2-yl)-8-oxo-3,9-diazatetracyclo[9.1.1.01, 0.2,1]trideca-2,4,6-trien-6-yl]-4-[(5-fluoro-2-pyridyl)methyl]-2,2-dimethyl-4H-1,4-benzoxazin-3(2H)-one]
62.4 nM | 6.16 nM | Cc1nnc(-c2c(CCC3CCOCC3)nc3c(c2-c2ccc4c(ccn4C(C)c4ccc(C#N)c(F)c4)c2)C(=O)N2CCOC[C@@H]32)o1 (stereo partly drawn) [Compound 110, 4-[1-(5-((4aR)-7-(5-methyl-1,3,4-oxadiazol-2-yl)-9-oxo-6-[2-(tetrahydro-2H-pyran-4-yl)ethyl]-1,2,4,4a-tetrahydro-9H-3-oxa-5,9a-diazafluoren-8-yl}-1-indolyl)ethyl]-2-fluorobenzonitrile]
174 nM | 6.63 nM | Cc1nnc(-c2c(CCC3CCOCC3)nc3c(c2-c2ccc4c(c2)oc(=O)n4Cc2ccc(C#N)cn2)C(=O)N2CCC[C@@H]32)o1 [Compound 125, 6-[(6-((2S)-10-(5-methyl-1,3,4-oxadiazol-2-yl)-7-oxo-11-[2-(tetrahydro-2H-pyran-4-yl)ethyl]-6,12-diazatricyclo[6.4.0.0^2,6,]dodeca-1(12),8,10-trien-9-yl}-2-oxo-1,3-benzoxazol-3-yl)methyl]nicotinonitrile]
1490 nM | 235 nM | Cc1nnc(-c2c(CCC3CCOCC3)nc3c(c2-c2cc4ccnc(NCc5ccc(C#N)c(F)n5)c4s2)S(=O)(=O)CC3C(C)C)o1 (stereo not shown) [Compound 134, 2-fluoro-6-[(2-(3-isopropyl-6-(5-methyl-1,3,4-oxadiazol-2-yl)-1,1-dioxo-5-[2-(tetrahydro-2H-pyran-4-yl)ethyl]-1-2-thia-4-aza-7-indanyl}-1-thia-6-aza-7-indenylamino)methyl]nicotinonitrile]
42.4 nM | 1.25 nM | Cc1nnc(-c2c(CCC3CCOCC3)nc3c(c2-c2ccc4c(c2)oc(=O)n4Cc2ccc(C#N)c(F)c2)C(=O)N2CCOC[C@@H]32)o1 [Compound 104, 4-[(6-((4aR)-7-(5-methyl-1,3,4-oxadiazol-2-yl)-9-oxo-6-[2-(tetrahydro-2H-pyran-4-yl)ethyl]-1,2,4,4a-tetrahydro-9H-3-oxa-5,9a-diazafluoren-8-yl}-2-oxo-1,3-benzoxazol-3-yl)methyl]-2-fluorobenzonitrile]
64.8 nM | 1.51 nM | Cc1nnc(-c2c(CCC3CCOCC3)nc3c(c2-c2ccc4c(c2)oc(=O)n4Cc2ccc(C#N)c(F)c2)S(=O)(=O)CC3C(C)C)o1 (stereo not shown) [Compound 109, 2-fluoro-4-[(6-(3-isopropyl-6-(5-methyl-1,3,4-oxadiazol-2-yl)-1,1-dioxo-5-[2-(tetrahydro-2H-pyran-4-yl)ethyl]-1λ^6-thia-4-aza-7-indanyl}-2-oxo-1,3-benzoxazol-3-yl)methyl]benzonitrile]
2700 nM | 216 nM | Cc1nnc(-c2c(CCC3CCOCC3)nc3c(c2-c2cnc4c(ccn4Cc4ccc(C#N)cn4)c2)C(=O)N2CCC[C@@H]32)o1 [Compound 124, 6-[(5-((2S)-10-(5-methyl-1,3,4-oxadiazol-2-yl)-7-oxo-11-[2-(tetrahydro-2H-pyran-4-yl)ethyl]-6,12-diazatricyclo[6.4.0.0,^1I]dodeca-1(12),8,10-trien-9-yl}-1H-1,7-diazainden-1-yl)methyl]nicotinonitrile]
